Several values for one entry are separate records, joined by “and”; a condition that tells them apart may be missing. Equal entries are not always repeated.
Tested on: 171881-019-R-J1-PDC complex spheroid growth, % test/control
Assay: Anticancer human tumor 171881-019-R-J1-PDC patient-derived invasive breast carcinoma cell line growth inhibition [Asc]
Settings: for viability, T/C: stronger effect = lower value
Protocol: Multicellular complex tumor spheroid response to apoptosis pathway targeting inhibitors Alrizomadlin, Pelcitoclax, and Dasminapant in combination with a variety of drugs and investigational agents in selected tumor cell lines
The MDM2 inhibitor alrizomadlin, the Bcl-2/Bcl-xL inhibitor pelcitoclax, and the IAPs inhibitor dasminapant were evaluated both individually and in combination with standard of care and investigational anticancer small molecules within a complex spheroid model of solid tumors. . Complex spheroids include a stromal component modeled by human endothelial cells (HUVEC) and fibroblasts modeled by human mesenchymal stem cells (MSCs). The concentration ranges selected for each drug and investigational agent were based upon clinically achievable concentrations if the clinical Cmax of the agent was known.
Compounds. The drugs and investigational agents: alrizomadlin (APG-115; NSC831270), pelcitoclax (APG-1252; NSC835773), dasminapant (APG-1387;NSC834197), TAK-243 (NSC785004), copanlisib (NSC809693), olaparib (NSC753686), talazoparib (NSC767125), cobimetinib (NSC 768068), eltanexor (KPT-8602, NSC 794443), abemaciclib (NSC 768073), sotorasib (NSC818433), adagrasib (NSC 831453), MRTX-1133 (NSC 836407), Iadademestat (ORY1001, NSC 806812), and RMC-4630 (NSC839698), were obtained from the NCI Developmental Therapeutics Program Chemical Repository. The FDA-approved anticancer drug set is available from the Developmental Therapeutics Program at https://dtp.cancer.gov/organization/dscb/obtaining/available plates.htm. […] The stock solutions were prepared in dimethyl sulfoxide (DMSO, Sigma-Aldrich, St. Louis, MO, cat. D2650) at 800-fold the tested concentration and stored at -70 degrees C prior to their use. All drugs and investigational agents were tested over a range starting from a high concentration at or near the clinical Cmax and decreasing in half-log increments. If the clinical Cmax for an agent had not been determined, the highest concentration tested was 10 microM.
The patient-derived cancer (PDC) cell lines include five colon adenocarcinomas: 186277-243-T-J2-PDC, 616215-338-R-J1-PDC, 439559-082-T-J2-PDC, 463943-066-T-J2-PDC, and 519858-162-T-J1-PDC; three pancreatic carcinomas: 323965-272-R-J2-PDC, 521955-158-R6-J3-PDC, and 521955-158-R2-J5-PDC; two uterine sarcomas: 327498-152-R-J2-PDC and 993429-296-R-J1-PDC; two rhabdomyosarcomas: 755483-174-R-J1-PDC and 772245-204-R-J1-PDC; two soft tissue sarcomas: 126254-015-R-J1-PDC and 494315-158-R-J1-PDC; two malignant fibrous histiocytomas: 317291-083-R-J1-PDC and 596521-263-R-J1-PDC; two breast carcinomas: 171881-019-R-J1-PDC and 885512-296-R-J2-PDC; and one ovarian carcinoma: 6556581-035-R-J-PDC were obtained from the NCI PDMR, (https://pdmr.cancer.gov). The established cell lines HSSY-2 synovial sarcoma (RRID:CVCL 8719), SYO-1 synovial sarcoma (RRID:CVCL_7146), MPNST malignant peripheral neural sheath tumor were obtained from the Sloan Kettering Institute. The following established cell lines were purchased from the American Type Culture Collection (ATCC, Manassas, VA), Sor the received from the NCI repository:, PANC-1 pancreatic carcinoma (CRL-1469, RRID:CVCL_0480), OVCAR-5 ovarian carcinoma (RRID:CVCL_1628), OVCAR-8 ovarian carcinoma (RRID:CVCL_1629), , MCF-7 breast carcinoma (CRL-12584, RRID:CVCL_0031), MDA-MB-231 breast carcinoma (CRL-12532, RRID:CVCL_0062), NCI-H1876 small cell lung carcinoma (CRL-5902, RRID:CVCL_1503), NCI-H510A small cell lung carcinoma (HTB-184, RRID:CVCL_1565), NCI-H1417 (CRL-5869, RRID:CVCL_1469), and NCI-H196 small cell lung carcinoma (CRL-5823, RRID:CVCL_1509). Dr. Peter Houghton (Greehey Children's Cancer Research Institute, University of Texas Health Science Center, San Antonio, TX) provided Rh-18 rhabdomyosarcoma (RRID:CVCL_1659). Pooled donor human umbilical vein endothelial cells (HUVEC, Lonza, cat. CC-2519) and human mesenchymal stem cells (hMSC, Lonza, cat. PT-2501) were purchased from Lonza (Walkersville, MD).
Cell Culture. […]

[1] = curve of first compound, second compound 0.01 µM
[2] = curve of first compound, second compound 0.0316 µM
[3] = curve of first compound, second compound 0.1 µM
[4] = curve of first compound, second compound 0.316 µM
[5] = curve of first compound, second compound 1 µM
[6] = second compound 0.01 µM, first compound 0.00949 µM
[7] = second compound 0.01 µM, first compound 0.03 µM
[8] = second compound 0.01 µM, first compound 0.0949 µM
[9] = second compound 0.01 µM, first compound 0.3 µM
[10] = second compound 0.0316 µM, first compound 0.00949 µM
[11] = second compound 0.0316 µM, first compound 0.03 µM
[12] = second compound 0.0316 µM, first compound 0.0949 µM
[13] = second compound 0.0316 µM, first compound 0.3 µM
[14] = second compound 0.1 µM, first compound 0.00949 µM
[15] = second compound 0.1 µM, first compound 0.03 µM
[16] = second compound 0.1 µM, first compound 0.0949 µM
[17] = second compound 0.1 µM, first compound 0.3 µM
[18] = second compound 0.316 µM, first compound 0.00949 µM
[19] = second compound 0.316 µM, first compound 0.03 µM
[20] = second compound 0.316 µM, first compound 0.0949 µM
[21] = second compound 0.316 µM, first compound 0.3 µM
[22] = second compound 1 µM, first compound 0.00949 µM
[23] = second compound 1 µM, first compound 0.03 µM
[24] = second compound 1 µM, first compound 0.0949 µM
[25] = second compound 1 µM, first compound 0.3 µM
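Wherever viability, T/C is given: spheroids exposed to compounds for 7 days.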

IC50 [1] | IC50 [2] | IC50 [3] | IC50 [4] | IC50 [5] | SMILES | viability, T/C [6] | viability, T/C [7] | viability, T/C [8] | viability, T/C [9] | viability, T/C [10] | viability, T/C [11] | viability, T/C [12] | viability, T/C [13] | viability, T/C [14] | viability, T/C [15] | viability, T/C [16] | viability, T/C [17] | viability, T/C [18] | viability, T/C [19] | viability, T/C [20] | other results
> 3000 nM | > 3000 nM | > 3000 nM | > 3000 nM | > 3000 nM | Cc1nc(N2CCC3(CC2)COC(C)C3N)c(CO)nc1Sc1ccnc(N)c1Cl (configuration not stated) + CNC(C)C(=O)NC1CN(S(=O)(=O)c2cccc(S(=O)(=O)N3CCC4CCC(C(=O)NC(c5ccccc5)c5ccccc5)N4C(=O)C(NC(=O)C(C)NC)C3)c2)CCC2CCC(C(=O)NC(c3ccccc3)c3ccccc3)N2C1=O | 119% | 132% | 192% | 239% | 116% | 163% | 214% | 279% | 120% | 147% | 196% | 237% | 111% | 140% | 203% | viability, T/C (second compound 0.01 µM, first compound 0.949 µM): 205%; viability, T/C (second compound 0.01 µM, first compound 3 µM): 165%; viability, T/C (second compound 0.0316 µM, first compound 0.949 µM): 211%; viability, T/C (second compound 0.0316 µM, first compound 3 µM): 164%; viability, T/C (second compound 0.1 µM, first compound 0.949 µM): 175%; viability, T/C (second compound 0.1 µM, first compound 3 µM): 155%; viability, T/C [21]: 229%; viability, T/C (second compound 0.316 µM, first compound 0.949 µM): 181%; viability, T/C (second compound 0.316 µM, first compound 3 µM): 147%; viability, T/C [22]: 119%; viability, T/C [23]: 148%; viability, T/C [24]: 183%; viability, T/C [25]: 250%; viability, T/C (second compound 1 µM, first compound 0.949 µM): 171%; viability, T/C (second compound 1 µM, first compound 3 µM): 142%
63 nM | 66.3 nM | 61.9 nM | 58.6 nM | 61.6 nM | NC(=O)C(=Cn1cnc(-c2cc(C(F)(F)F)cc(C(F)(F)F)c2)n1)c1cncnc1 + CNC(C)C(=O)NC1CN(S(=O)(=O)c2cccc(S(=O)(=O)N3CCC4CCC(C(=O)NC(c5ccccc5)c5ccccc5)N4C(=O)C(NC(=O)C(C)NC)C3)c2)CCC2CCC(C(=O)NC(c3ccccc3)c3ccccc3)N2C1=O | 139% | 109% | 17.5% | 5.02% | 149% | 104% | 17.8% | 5.09% | 145% | 111% | 14.1% | 4.5% | 149% | 98.7% | 15.8% | viability, T/C (second compound 0.01 µM, first compound 0.000949 µM): 118%; viability, T/C (second compound 0.01 µM, first compound 0.003 µM): 101%; viability, T/C (second compound 0.0316 µM, first compound 0.000949 µM): 109%; viability, T/C (second compound 0.0316 µM, first compound 0.003 µM): 111%; viability, T/C (second compound 0.1 µM, first compound 0.000949 µM): 97.9%; viability, T/C (second compound 0.1 µM, first compound 0.003 µM): 109%; viability, T/C (second compound 0.316 µM, first compound 0.000949 µM): 118%; viability, T/C (second compound 0.316 µM, first compound 0.003 µM): 108%; viability, T/C [21]: 4.13%; viability, T/C (second compound 1 µM, first compound 0.000949 µM): 110%; viability, T/C (second compound 1 µM, first compound 0.003 µM): 108%; viability, T/C [22]: 166%; viability, T/C [23]: 108%; viability, T/C [24]: 15.6%; viability, T/C [25]: 3.79%
– | – | – | – | – | NC(=O)C(=Cn1cnc(-c2cc(C(F)(F)F)cc(C(F)(F)F)c2)n1)c1cncnc1 | – | – | – | – | – | – | – | – | – | – | – | – | – | – | – | viability, T/C (compound 0.000949 µM): 83.2% and 95.6% and 98.7%; viability, T/C (compound 0.003 µM): 90.3% and 107% and 115%; viability, T/C (compound 0.00949 µM): 73.5% and 95.6% and 128%; viability, T/C (compound 0.03 µM): 44.2% and 56.6% and 124%; viability, T/C (compound 0.0949 µM): 7.59% and 10.6% and 19.6%; viability, T/C (compound 0.3 µM): 2.48% and 3.46% and 4.69%; IC50 (curve of compound): 23.4 nM and 35.4 nM and 66.1 nM
